Values quoted from earlier work in paper PMC9301952 (ACS Omega, 2022).

Test system: mouse
Details: behavioral assay used to predict psychedelic drug activity

SMILES | activity in the mouse head twitch assay
CNCCc1c[nH]c2cccc(O)c12 [norpsilocin, 4-hydroxy-N-methyltryptamine] | neither compound is active
CNCCc1c[nH]c2cccc(OP(=O)(O)O)c12 [baeocystin, 4-phosphoryloxy-N-methyltryptamine] | neither compound is active
